The values below come from publication PMC4899770, “Core-shell nanocarriers with high paclitaxel loading for passive and active targeting” (Scientific Reports, 2016).

The conditions of the data set: rat, in vivo, iv, 10 mg/kg.

Description: Blood samples (0.5 mL) were collected from rat orbit at the time points of 0.083, 0.25, 0.5, 1, 2, 4, 6 and 8 h. The blood samples were centrifuged for 10 min at 5,000 rpm in a desktop centrifuge (Anke TGL-16G, Shanghai, China), and the plasma was separated and transferred to microcentrifuge tubes. The PTX in plasma was measured using an HPLC system after extraction with ethylether and redissolved in methanol. The pharmacokinetic parameters of PTX were calculated using a non-compartmental model with Kinetica 5.0 (Thermo Fisher Scientific Inc., MA, USA).
Two hundred microliter of plasma samples were mixed with 10 µL of internal standard (100 ng/mL diazepam in methanol), followed by vortexing for 60 s. Following mixing into 800 µL of ethylether, the sample was vortexed for 2 min and centrifuged at 12,700 g for 10 min. Subsequently, the supernatant was collected and dried under a stream of nitrogen. The residual was redisolved in 100 µL of mobile phase, votexed for 3 min and centrifuged at 10,625 g for 5 min^7. Finally, 20 µL of the supernatant was injected into the HPLC system for analysis under the conditions described below.
PTX measurement was performed on a LC-10AT HPLC system (Shimadzu, Japan). It was separated at 30 °C using an ODS-C18 column (4.6 mm × 250 mm, Diamonsil, China). The samples were eluted with acetonitrile and water (54: 46, v/v) at the flow rate of 1.0 mL/min and monitored at 227 nm^8.

As to Taxol^®, the “AUC0-∞” value worked out at 4380 ± 3570 ng·h/mL; the CL turned out to be 1.68 ± 1.19 L/h; the MRT (as a rule, a mean duration of stay, worked out from the concentration-time curve) is 1.78 ± 0.88 h; the “k (elimination rate constant)” value is 2.99 ± 2.88 h⁻¹.
